Results on 33 compounds are retold here after patent US6903111B2 (priority 2001, dated 2005).

One may read the melting point as the temperature of the solid-liquid transition.

Take `O=C(C[C@H](Cc1ccccc1)NS(=O)(=O)C(F)(F)F)N1CC2CCC1CC2`: the melting point fell in the range of 155 to 158 °C.

Compound `O=C(O)C(=O)N[C@H](CC(=O)N1CC2CCC1CC2)Cc1ccccc1` came in with a melting point of 156 to 159 °C.

On to `O=C(Nc1cc(F)c(O)c(F)c1)[C@H](CC(=O)N1CC2CCC1CC2)Cc1ccccc1`, for which the melting point fell in the range of 118 to 120 °C.

`O=C(Nc1nccs1)[C@H](CC(=O)N1CC2CCC1CC2)Cc1ccccc1` registered a melting point of 69 to 72 °C.

Regarding `CN(c1c(O)c(=O)c1=O)[C@H](CC(=O)N1CC2CCC1CC2)Cc1ccccc1` [Compound 52, N-(3-hydroxy-3-cyclobutene-1,2-dione-4-yl)-N-methyl-(1S)-[2-(isoquinuclidin-2-yl)-2-oxo-ethyl]-phenyl ethylamine], the melting point was in the range of 153 to 155 °C.

The compound `O=C(O)[C@H](CCOc1ccccc1)CC(=O)N1CC2CCC1CC2` showed a melting point of 115 to 117 °C.

Take `O=C(O)C(C[C@H](CC(=O)N1CC2CCC1CC2)Cc1ccccc1)C(=O)O`: the melting point lay in the range of 78 to 80 °C.

In the case of `O=C(Cc1ccc(NS(=O)(=O)C(F)(F)F)cc1)N[C@H](CC(=O)N1CC2CCC1CC2)Cc1ccccc1`, the melting point was 78 to 80 °C.

For the compound `O=C(O)[C@H](CC(=O)N1CC2CCC1CC2)Cc1ccccc1` [Compound 1, (2S)-2-benzyl-4-(isoquinuclidin-2-yl)-4-oxo-butanoic acid], the melting point is 93 to 95 °C.

Take `O=C(Oc1ccc(NS(=O)(=O)C(F)(F)F)cc1)[C@H](CC(=O)N1CC2CCC1CC2)Cc1ccccc1`: the melting point fell in the range of 60 to 62 °C.

In the case of `O=C(O)C(O)[C@H](CC(=O)N1CC2CCC1CC2)Cc1ccccc1` (stereo partly drawn), the melting point fell in the range of 60 to 61 °C.

Turning to `O=C(O)C(C[C@H](CC(=O)N1CC2CCC1CC2)CC1CCCCC1)C(=O)O`, the melting point fell in the range of 84 to 85 °C.

`O=C(Oc1ccccc1)[C@H](CC(=O)N1CC2CCC1CC2)Cc1ccccc1` [Compound 15, (2S)-2-benzyl-4-(isoquinuclidin-2-yl)-4-oxo-butanoic acid phenylester]: the melting point fell in the range of 112 to 113 °C.

In turn, `O=C(Nc1nccs1)[C@H](CC(=O)N1CC2CCC1CC2)Oc1ccccc1` had a melting point of 60 to 65 °C.

As to `O=C(O)[C@H](CCN1CC2CCC1CC2)Cc1ccccc1` [Compound 47], the melting point lay in the range of 171 to 174 °C.

On to `O=C(O)CC(=O)N[C@H](CC(=O)N1CC2CCC1CC2)Cc1ccccc1`, for which the melting point fell in the range of 149 to 151 °C.

In turn, `O=C(Nc1ccncc1)[C@H](CC(=O)N1CC2CCC1CC2)Cc1ccccc1` came in with a melting point of 171 to 172 °C.

For `O=C(O)[C@@H](CCOc1ccccc1)CC(=O)N1CC2CCC1CC2`, the melting point is 117 to 119 °C.

Compound `O=C(O)[C@H](CC(=O)N1CC2CCC1CC2)Oc1ccccc1` displayed a melting point of 140 to 142 °C.

Regarding `O=C(C[C@@H](C=NOS(=O)(=O)O)Cc1ccccc1)N1CC2CCC1CC2`, the melting point was in the range of 148 to 151 °C.

Take `O=C(O)/C=C/[C@H](CC(=O)N1CC2CCC1CC2)Cc1ccccc1`: the melting point was in the range of 52 to 53 °C.

For the compound `CCOc1cc(CC(=O)N[C@H](CC(=O)N2CC3CCC2CC3)Cc2ccccc2)ccc1C(=O)O`, the melting point lay in the range of 100 to 103 °C.

Turning to `O=C(Cc1ccc(NC(=O)C(=O)O)cc1)N[C@@H](CC(=O)N1CC2CCC1CC2)Cc1ccccc1`, the melting point lay in the range of 79 to 80 °C.

Compound `CS(=O)(=O)N[C@H](CC(=O)N1CC2CCC1CC2)Cc1ccccc1` had a melting point of 127 to 129 °C.

`O=C(C[C@H](Cc1ccccc1)Nc1c(O)c(=O)c1=O)N1CC2CCC1CC2` showed a melting point of 156 to 158 °C.

`O=C(OC1CCCCC1)[C@H](CC(=O)N1CC2CCC1CC2)Cc1ccccc1` [Compound 14]: the melting point fell in the range of 92 to 95 °C.

For the compound `O=C([O-])[C@H](CC(=O)N1CC2CCC1CC2)Cc1ccccc1.[Na+]` [Compound 11], the melting point was > 250 °C.

On to `O=C(O)C(=O)Nc1ccc(C(=O)N[C@@H](CC(=O)N2CC3CCC2CC3)Cc2ccccc2)cc1`, for which the melting point fell in the range of 200 to 201 °C.

Turning to `O=C(Nc1ccc(NS(=O)(=O)C(F)(F)F)cc1)[C@H](CC(=O)N1CC2CCC1CC2)Cc1ccccc1`, the melting point lay in the range of 136 to 138 °C.

For `O=C(O)CC[C@H](CC(=O)N1CC2CCC1CC2)Cc1ccccc1`, the melting point is 79 to 81 °C.

In the case of `O=C(C[C@@H](Cc1ccccc1)NS(=O)(=O)C(F)(F)F)N1CC2CCC1CC2`, the melting point was 128 to 130 °C.

With `CS(=O)(=O)N[C@@H](CC(=O)N1CC2CCC1CC2)Cc1ccccc1`, the melting point is 129 to 130 °C.

With `O=C(Oc1ccc(O)cc1)[C@H](CC(=O)N1CC2CCC1CC2)Cc1ccccc1` [Compound 18, p-hydroxy phenyl (2S)-2-benzyl-4-(isoquinuclidine-2-yl)-4-oxo-butyrate], the melting point lay in the range of 61 to 64 °C.
